The text below walks through data of US20230094952A1, “Method for Culturing Hematopoietic Stem Cells” (Sumitomo Pharma Co., Ltd., priority 2019, published 2023).

The test system of the assay is mouse long-term hematopoietic stem cells. In words: Reproducibility and concentration dependence test: 1-week culture of sorted Hoxb5-tri-mCherry mouse long-term hematopoietic stem cells, flow cytometry. Particulars: Table 4, day 7 of culture, n=2. Type of assay: cell-based. As to the method: Mice with insertion of a nucleic acid sequence containing three copies of a gene encoding the fluorescent protein mCherry to the C terminus of the mouse endogenous HoxB5 gene (Hoxb5-tri-mCherry) were used (triple-mCherry Hoxb5 knock-in mice; Non Patent Literature 1). The mice were housed under environmental conditions such that the room temperature and the humidity were 20 to 26° C. and 40 to 70%, respectively, under light for 12 hours and under dark for 12 hours (illumination: 8:00 a.m. to 8:00 p.m.).
Bone marrow cells were collected from the tibia, femur, humerus, and pelvis in each side of each of the mice, and gathered in a mortar. A buffer obtained by adding thermally deactivated bovine serum (manufactured by Gibco) at a final concentration of 2% and EDTA at a final concentration of 2 mM to Ca^2+-free and Mg^2+-free PBS was added, and the resultant was broken with a pestle to obtain a cell population including hematopoietic stem cells.
First, the thus-obtained cell population including hematopoietic stem cells was passed through strainers (meshes) of 100 μm, 70 μm, and 40 μm. The cell population was stained with an APC-binding anti-c-Kit (2B8) and fractionated with anti-APC magnetic beads and an LS column (both manufactured by Miltenyi Biotec) to obtain a cell population enriched with hematopoietic stem cells and progenitor cells.
Subsequently, cells being c-Kit-positive were stained with antibodies for the following cell surface markers.
Staining with the antibodies was performed at 4° C., and the cells were incubated for 30 minutes. For staining with the CD34 antibody, the cells were incubated for 90 minutes. Dead cell staining was performed with SYTOX Red Dead Cell Stain (manufactured by Life Technologies) in accordance with a method recommended by the manufacturer.
Flow cytometry analysis and cell classification (cell sorting) were performed with a FACS Aria II cell sorter (manufactured by BD Biosciences), wherein Lineage-negative, c-Kit-positive, Sca-1-positive, Flk2-negative, CD34-negative or weakly CD34-positive, CD150-positive, and mCherry-positive fractions were regarded as long-term hematopoietic stem cells, and analysis was performed with the software FlowJo (manufactured by Tree Star, Inc.).
The cells after classification were seeded in a 96-well plate. A cell culture medium was prepared by adding Stem Cell Factor (SCF, manufactured by PeproTech, Inc.) and Thrombopoietin (TPO, manufactured by PeproTech, Inc.) to StemSpan SFEM culture medium (manufactured by […] Technologies Inc.) and added in advance to a cell culture 96-well plate (manufactured by BD Biosciences) at 100 μL/well, and the cells sorted with the FACS Aria II cell sorter (BD Biosciences) were then seeded at 10 cells/well.
[…] Thereafter, the cells were cultured in a CO2 incubator under conditions of 37° C. and 5% CO2 for 1 week.
After culture, the cells were stained with the antibodies for the surface markers c-Kit and Sca-1, Ter-119, B220, CD3, CD4, CD8a, Gr-1, and CD11b, and the ratio and post-growth cell count of a KLS fraction (c-Kit^+, Lin^−, Sca-1^+) or an mCherry-positive fraction given with use of a FACS Aria II cell sorter were analyzed by using FlowJo (BD Biosciences). The mCherry-positive fraction is a cell fraction expressing the Hoxb5 gene, and the KLS fraction is a cell fraction being c-Kit-positive, Lin-negative, and Sca-1-positive, and includes hematopoietic stem cells and multipotent progenitor cells as main components. […]
A general note: Flow cytometry measures light scatter and fluorescence of single cells or particles in a stream.

Molecules are shown by their SMILES.

With `CC(=O)OCCOC1O[C@@H]2O[C@@]3(C)CC[C@H]4[C@H](C)CC[C@@H]([C@H]1C)[C@@]24OO3` (stereo in doubt) [Example 1-26, 2-{[(3R,5aS,6R,8aS,9R,10S,12R,12aR)-3,6,9-Trimethyldecahydro-12H-3,12-epoxypyrano[4,3-j][1,2]benzodioxepin-10-yl]oxy}ethyl acetate], the KLS-positive rate (compound 0.1 μM) stood at 56.1%; the KLS-positive rate (compound 0.3 μM) turned out to be 68.5%; the KLS-positive rate (compound 1 μM) is listed as 55.4%; the KLS-positive rate (compound 3 μM) was found to be 26.9%; the KLS-positive rate (compound 10 μM) is listed as 28.9%. Also, the Viable cell count (compound 0.1 μM) was determined as 13.5 cell; the Viable cell count (compound 0.3 μM) came out at 48.5 cell; the Viable cell count (compound 1 μM) is given as 20.0 cell; the Viable cell count (compound 3 μM) is reported as 43.5 cell; the Viable cell count (compound 10 μM) is 30.5 cell. Besides, the mCherry-positive rate runs as follows: (compound 0.1 μM) 80.7%; (compound 0.3 μM) 95.0%; (compound 1 μM) 96.7%; (compound 3 μM) 100.0%; (compound 10 μM) 100.0%.

As to `C[C@H]1[C@@H](F)O[C@@H]2O[C@@]3(C)CC[C@H]4[C@H](C)CC[C@@H]1[C@@]24OO3` [Example 1-1, (3R,5aS,6R,8aS,9R,10R,12S,12aR)-10-Fluoro-3,6,9-trimethyldecahydro-12H-3,12-epoxypyrano[4,3-j][1,2]benzodioxepine], the KLS-positive rate amounted to 46.5% (compound 0.1 μM); 0.0% (compound 0.3 μM); 0.0% (compound 1 μM); 0.0% (compound 3 μM); 0.0% (compound 10 μM). Further, the Viable cell count is, setting by setting: (compound 0.1 μM) 477.0 cell; (compound 0.3 μM) 0.0 cell; (compound 1 μM) 0.5 cell; (compound 3 μM) 0.0 cell; (compound 10 μM) 0.0 cell. In addition, the mCherry-positive rate is on record as 0.5% (compound 0.1 μM); 0.0% (compound 0.3 μM); 50.0% (compound 1 μM); 0.0% (compound 3 μM); 0.0% (compound 10 μM).

With `C[C@H]1[C@@H](c2ccccc2)O[C@@H]2O[C@@]3(C)CC[C@H]4[C@H](C)CC[C@@H]1[C@@]24OO3` [Example 1-2, (3R,5aS,6R,8aS,9R,10S,12R,12aR)-3,6,9-Trimethyl-10-phenyldecahydro-12H-3,12-epoxypyrano[4,3-j][1,2]benzodioxepine], the KLS-positive rate is, setting by setting: (compound 0.1 μM) 16.0%; (compound 0.3 μM) 50.0%; (compound 1 μM) 0.0%; (compound 3 μM) 0.0%; (compound 10 μM) 0.0%. In addition, the Viable cell count by setting is: (compound 0.1 μM) 340.5 cell; (compound 0.3 μM) 0.5 cell; (compound 1 μM) 0.5 cell; (compound 3 μM) 0.5 cell; (compound 10 μM) 0.0 cell. Moreover, the mCherry-positive rate runs as follows: (compound 0.1 μM) 59.9%; (compound 0.3 μM) 50.0%; (compound 1 μM) 0.0%; (compound 3 μM) 50.0%; (compound 10 μM) 0.0%.

As for `CS[C@@H]1O[C@@H]2O[C@@]3(C)CC[C@H]4[C@H](C)CC[C@@H]([C@H]1C)[C@@]24OO3` [Example 1-3, (3R,5aS,6R,8aS,9R,10S,12S,12aR)-3,6,9-Trimethyl-10-(methylsulfanyl)decahydro-12H-3,12-epoxypyrano[4,3-j][1,2]benzodioxepine], the KLS-positive rate stood at 15.8% (compound 0.1 μM); 18.6% (compound 0.3 μM); 20.3% (compound 1 μM); 24.2% (compound 3 μM); 83.4% (compound 10 μM). The compound also gave a Viable cell count (compound 0.1 μM) of 445.0 cell; a Viable cell count (compound 0.3 μM) of 324.0 cell; a Viable cell count (compound 1 μM) of 299.5 cell; a Viable cell count (compound 3 μM) of 139.0 cell; a Viable cell count (compound 10 μM) of 3.5 cell. Also, the mCherry-positive rate by setting is: (compound 0.1 μM) 8.0%; (compound 0.3 μM) 4.7%; (compound 1 μM) 38.6%; (compound 3 μM) 97.0%; (compound 10 μM) 100.0%.

As to `CS[C@H]1O[C@@H]2O[C@@]3(C)CC[C@H]4[C@H](C)CC[C@@H]([C@H]1C)[C@@]24OO3` [Example 1-4, (3R,5aS,6R,8aS,9R,10R,12S,12aR)-3,6,9-trimethyl-10-(methylsulfanyl)decahydro-12H-3,12-epoxypyrano[4,3-j][1,2]benzodioxepine], the KLS-positive rate was determined as 17.2% (compound 0.1 μM); 37.9% (compound 0.3 μM); 31.1% (compound 1 μM); 30.7% (compound 3 μM); 61.4% (compound 10 μM). Moreover, the Viable cell count was found to be 353.0 cell (compound 0.1 μM); 103.0 cell (compound 0.3 μM); 181.5 cell (compound 1 μM); 87.5 cell (compound 3 μM); 7.5 cell (compound 10 μM). The mCherry-positive rate is recorded as 8.0% (compound 0.1 μM); 44.7% (compound 0.3 μM); 85.2% (compound 1 μM); 100.0% (compound 3 μM); 90.9% (compound 10 μM).

Turning to `C[C@H]1[C@H](S(C)(=O)=O)O[C@@H]2O[C@@]3(C)CC[C@H]4[C@H](C)CC[C@@H]1[C@@]24OO3` [Example 1-5, (3R,5aS,6R,8aS,9R,10S,12S,12aR)-10-(Methanesulfonyl)-3,6,9-trimethyldecahydro-12H-3,12-epoxypyrano[4,3-j][1,2]benzodioxepine], the KLS-positive rate runs as follows: (compound 0.1 μM) 18.2%; (compound 0.3 μM) 41.7%; (compound 1 μM) 20.0%; (compound 3 μM) 30.8%; (compound 10 μM) 0.0%. For the same compound, the Viable cell count is listed as 443.5 cell (compound 0.1 μM); 221.5 cell (compound 0.3 μM); 308.0 cell (compound 1 μM); 184.0 cell (compound 3 μM); 1.5 cell (compound 10 μM). Also, the mCherry-positive rate by setting is: (compound 0.1 μM) 11.5%; (compound 0.3 μM) 8.5%; (compound 1 μM) 4.5%; (compound 3 μM) 41.5%; (compound 10 μM) 0.0%.

For the compound `C[C@H]1[C@@H](C)O[C@@H]2O[C@@]3(C)CC[C@H]4[C@H](C)CC[C@@H]1[C@@]24OO3` [Example 1-6, (3R,5aS,6R,8aS,9R,10R,12R,12aR)-3,6,9,10-Tetramethyldecahydro-12H-3,12-epoxypyrano[4,3-j][1,2]benzodioxepine], the KLS-positive rate by setting is: (compound 0.1 μM) 34.8%; (compound 0.3 μM) 20.9%; (compound 1 μM) 19.8%; (compound 3 μM) 17.6%; (compound 10 μM) 47.8%. Further, the Viable cell count is, setting by setting: (compound 0.1 μM) 147.0 cell; (compound 0.3 μM) 190.0 cell; (compound 1 μM) 183.5 cell; (compound 3 μM) 215.5 cell; (compound 10 μM) 37.5 cell. Moreover, the mCherry-positive rate was 2.0% (compound 0.1 μM); 15.6% (compound 0.3 μM); 24.4% (compound 1 μM); 80.8% (compound 3 μM); 98.4% (compound 10 μM).
